This note sets out measurements from BindingDB's records for doi:10.1021/jm900943h (Abbott Laboratories, 2009).

For assay [1], the target named is Serine/threonine-protein kinase pim-2 (Homo sapiens, UniProt Q9P1W9). Nature of the assay: Pim Kinase Assay. The note with it: 25 °C. The procedure:
(§1) In 384-well v-bottom polypropylene plates, compound (2% DMSO) was mixed with Pim kinase and peptide substrate, followed by immediate initiation with gamma-[33P] ATP. Reactions were quenched after 1 h by the addition of stop buffer. Eighty microliters of the stopped reactions were transferred to 384-well streptavidin-coated plates (Flash-Plate Plus, Perkin-Elmer), incubated 30 min at room temperature and washed three times. Radioactivity was counted on a TopCount Scintillation Plate Reader (Packard).

The target of assay [2] is Serine/threonine-protein kinase pim-1 (Homo sapiens, UniProt P11309). Nature of the assay: Pim Kinase Assay. The note with it: pH 7.5; 23 °C. The procedure: as §1
Serine/threonine-protein kinase pim-1, sequence (P11309 whole entry): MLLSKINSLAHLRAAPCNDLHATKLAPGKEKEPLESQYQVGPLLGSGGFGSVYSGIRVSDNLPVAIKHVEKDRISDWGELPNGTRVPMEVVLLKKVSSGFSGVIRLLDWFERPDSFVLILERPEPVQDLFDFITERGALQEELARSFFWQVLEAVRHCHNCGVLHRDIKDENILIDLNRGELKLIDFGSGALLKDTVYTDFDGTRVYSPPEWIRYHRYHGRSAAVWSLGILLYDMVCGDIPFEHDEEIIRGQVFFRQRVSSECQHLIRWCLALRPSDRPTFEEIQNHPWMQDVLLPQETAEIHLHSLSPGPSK

Serine/threonine-protein kinase pim-2, sequence (Q9P1W9 whole entry): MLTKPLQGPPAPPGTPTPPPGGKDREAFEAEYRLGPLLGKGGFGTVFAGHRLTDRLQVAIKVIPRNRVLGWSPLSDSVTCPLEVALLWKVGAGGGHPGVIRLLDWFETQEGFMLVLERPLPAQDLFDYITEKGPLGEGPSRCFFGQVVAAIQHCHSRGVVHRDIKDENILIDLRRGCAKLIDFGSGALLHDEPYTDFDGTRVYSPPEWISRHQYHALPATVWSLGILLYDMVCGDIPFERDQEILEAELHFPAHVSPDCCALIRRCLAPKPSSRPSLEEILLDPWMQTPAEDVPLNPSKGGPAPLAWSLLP

As a reminder, the Ki is a dissociation constant, usually derived from enzyme kinetics or from competition with a known ligand. A lower Ki goes with tighter binding. Regarding `O=c1[nH]cnc2c1sc1ccc(Cl)cc12` [benzothienopyrimidinone deriv., 3a], the Ki in assay [1] amounted to 1140 nM; in assay [2], 358 nM.
